Molecular target: T1, N-terminal HiBiT tagged BCL6 (Homo sapiens, UniProt P41182)
T1 construct: expressed in transfected cells; host or cells: HT1080 (ATCC CCL-121), stably transduced with lentivirus pLV-UBC-N-HiBiT-BCL6-PGK-puro
Assay: HiBiT based degradation assay
Assay type: cell-based
Settings: HT1080 cells expressing N-terminal HiBiT tagged BCL6, 5 hours of incubation; for Ymin (5 hr): BCL6 degradation normalized with DMSO control; for DC50: four-parameter logistic model, read-out: EC50 (5 hr)
In short: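 Degradation measured by luminescence from the Nano-Glo HiBiT lytic reagent (15 min, room temperature), normalized to DMSO controls and fitted to a four-parameter curve.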

| SMILES | Ymin (5 hr) | DC50 [nM] |
| --- | --- | --- |
| CNC(=O)COc1cc2cc(Nc3nc(N4CCC(Oc5ccc6c(C7CCC(=O)NC7=O)nn(C)c6c5)CC4)ncc3Cl)cnc2n(C)c1=O (stereo not shown) [Compound 147, 2-((6-((5-chloro-2-(4-((3-(2,6-dioxopiperidin-3-yl)-1-methyl-1H-indazol-6-yl)oxy)piperidin-1-yl)pyrimidin-4-yl)amino)-1-methyl-2-oxo-1,2-dihydro-1,8-naphthyridin-3-yl)oxy)-N-methylacetamide] | ++++ (Ymin < 30%) | < 10 |
| CNC(=O)COc1cc2cc(Nc3nc(N4CCC(Oc5cccc6c(C7CCC(=O)NC7=O)nn(C)c56)CC4)ncc3Cl)cnc2n(C)c1=O (stereo not shown) [Compound 148, 2-((6-((5-chloro-2-(4-((3-(2,6-dioxopiperidin-3-yl)-1-methyl-1H-indazol-7-yl)oxy)piperidin-1-yl)pyrimidin-4-yl)amino)-1-methyl-2-oxo-1,2-dihydro-1,8-naphthyridin-3-yl)oxy)-N-methylacetamide] | +++ (30% ≤ Ymin < 50%) | < 10 |
| CNC(=O)COc1cc2cc(Nc3nc(N4CCN(CC5CCC6(CC5)CN(c5cccc7c(C8CCC(=O)NC8=O)nn(C)c57)C6)CC4)ncc3Cl)cnc2n(C)c1=O (stereo not shown) [Compound 149, 2-((6-((5-chloro-2-(4-((2-(3-(2,6-dioxopiperidin-3-yl)-1-methyl-1H-indazol-7-yl)-2-azaspiro[3.5]nonan-7-yl)methyl)piperazin-1-yl)pyrimidin-4-yl)amino)-1-methyl-2-oxo-1,2-dihydro-1,8-naphthyridin-3-yl)oxy)-N-methylacetamide] | +++ (30% ≤ Ymin < 50%) | 10 to 100 |
| CNC(=O)COc1cc2cc(Nc3nc(N4CCN(CC5CCN(c6cccc7c(C8CCC(=O)NC8=O)nn(C)c67)CC5)CC4)ncc3Cl)cnc2n(C2CC2)c1=O (stereo not shown) [Compound 150, 2-((6-((5-chloro-2-(4-((1-(3-(2,6-dioxopiperidin-3-yl)-1-methyl-1H-indazol-7-yl)piperidin-4-yl)methyl)piperazin-1-yl)pyrimidin-4-yl)amino)-1-cyclopropyl-2-oxo-1,2-dihydro-1,8-naphthyridin-3-yl)oxy)-N-methylacetamide] | ++++ (Ymin < 30%) | < 10 |
| CNC(=O)COc1cc2cc(Nc3nc(N4CCN(CC5CCN(c6ccc7c(C8CCC(=O)NC8=O)nn(C)c7c6)CC5)C[C@@H]4CO)ncc3Cl)cnc2n(C(C)C)c1=O (stereo partly drawn) [Compound 151a, 2-((6-((5-chloro-2-((2R)-4-((1-(3-(2,6-dioxopiperidin-3-yl)-1-methyl-1H-indazol-6-yl)piperidin-4-yl)methyl)-2-(hydroxymethyl)piperazin-1-yl)pyrimidin-4-yl)amino)-1-isopropyl-2-oxo-1,2-dihydro-1,8-naphthyridin-3-yl)oxy)-N-methylacetamide] | +++ (30% ≤ Ymin < 50%) | < 10 |
| CNC(=O)COc1cc2cc(Nc3nc(N4CCN(CC5CCN(c6ccc7c(C8CCC(=O)NC8=O)nn(C)c7c6)CC5)C[C@H]4CO)ncc3Cl)cnc2n(C(C)C)c1=O (stereo partly drawn) [Compound 151b, 2-((6-((5-chloro-2-((2S)-4-((1-(3-(2,6-dioxopiperidin-3-yl)-1-methyl-1H-indazol-6-yl)piperidin-4-yl)methyl)-2-(hydroxymethyl)piperazin-1-yl)pyrimidin-4-yl)amino)-1-isopropyl-2-oxo-1,2-dihydro-1,8-naphthyridin-3-yl)oxy)-N-methylacetamide] | ++ (50% ≤ Ymin < 70%) | < 10 |
| CNC(=O)COc1cc2cc(Nc3cc(N4CCC(CN5CCN(c6cccc7c(C8CCC(=O)NC8=O)nn(C)c67)CC5)CC4)ncc3Cl)cnc2n(C(C)C)c1=O (stereo not shown) [Compound 152, 2-((6-((5-chloro-2-(4-((4-(3-(2,6-dioxopiperidin-3-yl)-1-methyl-1H-indazol-7-yl)piperazin-1-yl)methyl)piperidin-1-yl)pyridin-4-yl)amino)-1-isopropyl-2-oxo-1,2-dihydro-1,8-naphthyridin-3-yl)oxy)-N-methylacetamide] | +++ (30% ≤ Ymin < 50%) | 10 to 100 |
| CNC(=O)COc1cc2cc(Nc3nc(N4CCN(CC5CCN(c6ccc7c(C8CCC(=O)NC8=O)nn(C)c7c6)CC5)[C@@H](CO)C4)ncc3Cl)cnc2n(C(C)C)c1=O (stereo partly drawn) [Compound 153a, 2-((6-((5-chloro-2-((3R)-4-((1-(3-(2,6-dioxopiperidin-3-yl)-1-methyl-1H-indazol-6-yl)piperidin-4-yl)methyl)-3-(hydroxymethyl)piperazin-1-yl)pyrimidin-4-yl)amino)-1-isopropyl-2-oxo-1,2-dihydro-1,8-naphthyridin-3-yl)oxy)-N-methylacetamide] | +++ (30% ≤ Ymin < 50%) | < 10 |
| CNC(=O)COc1cc2cc(Nc3nc(N4CCN(CC5CCN(c6ccc7c(C8CCC(=O)NC8=O)nn(C)c7c6)CC5)[C@H](CO)C4)ncc3Cl)cnc2n(C(C)C)c1=O (stereo partly drawn) [Compound 153b, 2-((6-((5-chloro-2-((3S)-4-((1-(3-(2,6-dioxopiperidin-3-yl)-1-methyl-1H-indazol-6-yl)piperidin-4-yl)methyl)-3-(hydroxymethyl)piperazin-1-yl)pyrimidin-4-yl)amino)-1-isopropyl-2-oxo-1,2-dihydro-1,8-naphthyridin-3-yl)oxy)-N-methylacetamide] | +++ (30% ≤ Ymin < 50%) | < 10 |
| CNC(=O)COc1cc2cc(Nc3nc(N4CCN(CC5CCN(c6cccc7c(C8CCC(=O)NC8=O)nn(C)c67)CC5)CC4)ncc3Cl)cnc2n(CCOC)c1=O (stereo not shown) [Compound 154, 2-((6-((5-chloro-2-(4-((1-(3-(2,6-dioxopiperidin-3-yl)-1-methyl-1H-indazol-7-yl)piperidin-4-yl)methyl)piperazin-1-yl)pyrimidin-4-yl)amino)-1-(2-methoxyethyl)-2-oxo-1,2-dihydro-1,8-naphthyridin-3-yl)oxy)-N-methylacetamide] | ++++ (Ymin < 30%) | < 10 |
| CNC(=O)COc1cc2cc(Nc3nc(N4CCN(CC5CCN(c6cccc7c(C8CCC(=O)NC8=O)nn(C)c67)CC5)C[C@H]4CO)ncc3Cl)cnc2n(C(C)C)c1=O (stereo partly drawn) [Compound 155a, 2-((6-((5-chloro-2-((2S)-4-((1-(3-(2,6-dioxopiperidin-3-yl)-1-methyl-1H-indazol-7-yl)piperidin-4-yl)methyl)-2-(hydroxymethyl)piperazin-1-yl)pyrimidin-4-yl)amino)-1-isopropyl-2-oxo-1,2-dihydro-1,8-naphthyridin-3-yl)oxy)-N-methylacetamide] | +++ (30% ≤ Ymin < 50%) | 10 to 100 |
| CNC(=O)COc1cc2cc(Nc3nc(N4CCN(CC5CCN(c6cccc7c(C8CCC(=O)NC8=O)nn(C)c67)CC5)C[C@@H]4CO)ncc3Cl)cnc2n(C(C)C)c1=O (stereo partly drawn) [Compound 155b, 2-((6-((5-chloro-2-((2R)-4-((1-(3-(2,6-dioxopiperidin-3-yl)-1-methyl-1H-indazol-7-yl)piperidin-4-yl)methyl)-2-(hydroxymethyl)piperazin-1-yl)pyrimidin-4-yl)amino)-1-isopropyl-2-oxo-1,2-dihydro-1,8-naphthyridin-3-yl)oxy)-N-methylacetamide] | ++++ (Ymin < 30%) | < 10 |
| CNC(=O)COc1cc2cc(Nc3nc(N4CCN(CC5CCN(c6cccc7c(C8CCC(=O)NC8=O)nn(C)c67)CC5)CC4)ncc3Cl)cnc2n(CC2CC2)c1=O (stereo not shown) [Compound 157, 2-((6-((5-chloro-2-(4-((1-(3-(2,6-dioxopiperidin-3-yl)-1-methyl-1H-indazol-7-yl)piperidin-4-yl)methyl)piperazin-1-yl)pyrimidin-4-yl)amino)-1-(cyclopropylmethyl)-2-oxo-1,2-dihydro-1,8-naphthyridin-3-yl)oxy)-N-methylacetamide] | ++++ (Ymin < 30%) | 10 to 100 |
| CNC(=O)COc1cc2cc(Nc3nc(N4CCN(C(C)(C)C5CCN(c6ccc7c(C8CCC(=O)NC8=O)nn(C)c7c6)CC5)CC4)ncc3Cl)cnc2n(C(C)C)c1=O (stereo not shown) [Compound 158, 2-((6-((5-chloro-2-(4-(2-(1-(3-(2,6-dioxopiperidin-3-yl)-1-methyl-1H-indazol-6-yl)piperidin-4-yl)propan-2-yl)piperazin-1-yl)pyrimidin-4-yl)amino)-1-isopropyl-2-oxo-1,2-dihydro-1,8-naphthyridin-3-yl)oxy)-N-methylacetamide] | ++ (50% ≤ Ymin < 70%) | < 10 |
| CNC(=O)COc1cc2cc(Nc3cc(N4CCN(CC5CCN(c6cccc7c(C8CCC(=O)NC8=O)nn(C)c67)CC5)CC4)ncc3Cl)cnc2n(C)c1=O (stereo not shown) [Compound 160, 2-((6-((5-chloro-2-(4-((1-(3-(2,6-dioxopiperidin-3-yl)-1-methyl-1H-indazol-7-yl)piperidin-4-yl)methyl)piperazin-1-yl)pyridin-4-yl)amino)-1-methyl-2-oxo-1,2-dihydro-1,8-naphthyridin-3-yl)oxy)-N-methylacetamide] | ++++ (Ymin < 30%) | < 10 |
| CNC(=O)COc1cc2cc(Nc3nc(N4CCC(F)(CN5CCC(c6cccc7c(C8CCC(=O)NC8=O)nn(C)c67)CC5)CC4)ncc3Cl)cnc2n(C(C)C)c1=O (stereo not shown) [Compound 161, 2-((6-((5-chloro-2-(4-((4-(3-(2,6-dioxopiperidin-3-yl)-1-methyl-1H-indazol-7-yl)piperidin-1-yl)methyl)-4-fluoropiperidin-1-yl)pyrimidin-4-yl)amino)-1-isopropyl-2-oxo-1,2-dihydro-1,8-naphthyridin-3-yl)oxy)-N-methylacetamide] | ++++ (Ymin < 30%) | 10 to 100 |
| CNC(=O)COc1cc2cc(Nc3nc(N4C5COCC4CN(CC4CCN(c6cccc7c(C8CCC(=O)NC8=O)nn(C)c67)CC4)C5)ncc3Cl)cnc2n(C(C)C)c1=O (stereo not shown) [Compound 162, 2-((6-((5-chloro-2-(7-((1-(3-(2,6-dioxopiperidin-3-yl)-1-methyl-1H-indazol-7-yl)piperidin-4-yl)methyl)-3-oxa-7,9-diazabicyclo[3.3.1]nonan-9-yl)pyrimidin-4-yl)amino)-1-isopropyl-2-oxo-1,2-dihydro-1,8-naphthyridin-3-yl)oxy)-N-methylacetamide] | ++++ (Ymin < 30%) | < 10 |
